Source: US20260015350A1, “AZAQUINAZOLINE PAN-KRAS INHIBITORS” (Mirati Therapeutics, Inc., priority 2022, published 2026)

How the values were obtained:
[1] = target: T1, KRas^WT (Homo sapiens, UniProt P01116); experiment: KRas binding assay (TR-FRET tracer displacement), KRas WT; details: TR-FRET tracer displacement, KRas WT
T1 construct: Biotinylated KRas (corresponding to amino acids 1-169, produced at Accelegan Inc.); biotin (biotinylated); purchased Accelegan Inc

[2] = target: T2, KRas^G12C (Homo sapiens, UniProt P01116, G12C); experiment: KRas binding assay (TR-FRET tracer displacement), KRas G12C; details: TR-FRET tracer displacement, KRas G12C
T2 construct: Biotinylated KRas (corresponding to amino acids 1-169, produced at Accelegan Inc.); biotin (biotinylated); purchased Accelegan Inc
T2 sequence (P01116 1-169 isoform P01116-2 G12C): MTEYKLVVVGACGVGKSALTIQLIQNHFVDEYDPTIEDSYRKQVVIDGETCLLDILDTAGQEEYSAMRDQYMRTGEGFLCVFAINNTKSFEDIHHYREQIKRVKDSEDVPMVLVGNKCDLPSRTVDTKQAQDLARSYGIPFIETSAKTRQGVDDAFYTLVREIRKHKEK

[3] = target: T3, KRas^G12D (Homo sapiens, UniProt P01116, G12D); experiment: KRas binding assay (TR-FRET tracer displacement), KRas G12D
T3 construct: Biotinylated KRas (corresponding to amino acids 1-169, produced at Accelegan Inc.); biotin (biotinylated); purchased Accelegan Inc
T3 sequence (P01116 1-169 isoform P01116-2 G12D): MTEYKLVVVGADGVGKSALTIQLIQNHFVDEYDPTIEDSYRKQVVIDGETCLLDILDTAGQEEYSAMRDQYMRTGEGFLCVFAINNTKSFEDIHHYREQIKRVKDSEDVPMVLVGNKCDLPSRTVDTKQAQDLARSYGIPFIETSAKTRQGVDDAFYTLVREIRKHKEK

[4] = target: T4, KRas^G12S (Homo sapiens, UniProt P01116, G12S); experiment: KRas binding assay (TR-FRET tracer displacement), KRas G12S; details: TR-FRET tracer displacement, KRas G12S
T4 construct: Biotinylated KRas (corresponding to amino acids 1-169, produced at Accelegan Inc.); biotin (biotinylated); purchased Accelegan Inc
T4 sequence (P01116 1-169 isoform P01116-2 G12S): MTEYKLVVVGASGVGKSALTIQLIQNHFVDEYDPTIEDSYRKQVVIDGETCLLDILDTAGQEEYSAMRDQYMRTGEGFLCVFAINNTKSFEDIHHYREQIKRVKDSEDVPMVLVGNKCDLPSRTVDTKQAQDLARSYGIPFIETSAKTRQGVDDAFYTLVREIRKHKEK

[5] = target: T5, KRas^G12V (Homo sapiens, UniProt P01116, G12V); experiment: KRas binding assay (TR-FRET tracer displacement), KRas G12V
T5 construct: Biotinylated KRas (corresponding to amino acids 1-169, produced at Accelegan Inc.); biotin (biotinylated); purchased Accelegan Inc
T5 sequence (P01116 1-169 isoform P01116-2 G12V): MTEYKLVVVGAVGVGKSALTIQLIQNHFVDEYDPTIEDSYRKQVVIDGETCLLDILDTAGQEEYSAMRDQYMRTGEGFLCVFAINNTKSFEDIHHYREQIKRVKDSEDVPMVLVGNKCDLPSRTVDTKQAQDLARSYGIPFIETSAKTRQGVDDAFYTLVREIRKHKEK

[6] = system: KRas-mediated phosphorylation of ERK in MKN1 cells; experiment: Inhibition of KRas-mediated phosphorylation of ERK (Cisbio HTRF pERK), MKN1 cells; type: cell-based; details: Homo sapiens, MKN-1
Procedure, shortened: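 Seeding density was 6,000 cells/well; medium RPMI, 10% FBS. Read-out by homogeneous time-resolved fluorescence (pERK) after 4 hours covered at room temperature.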

[7] = system: KRas-mediated phosphorylation of ERK in AsPC-1 cells; experiment: Inhibition of KRas-mediated phosphorylation of ERK (Cisbio HTRF pERK), AsPC-1 cells; type: cell-based; details: Homo sapiens, ASPC1, AsPC-1 cells; HTRF pERK
Procedure, shortened: (§1)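 Cells were seeded at 6,000 per well and treated for 3 hrs with compound in a 10-dose, 3-fold series from 10 uM (0.8% final DMSO), with 0.2 uM Trametinib as Min control. Lysates made at 4° C over 40 mins were incubated 2 hrs at room temperature with d2- and Cryptate-labelled antibodies, then read by HTRF.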

[8] = system: KRas-mediated phosphorylation of ERK in H727 cells; experiment: Inhibition of KRas-mediated phosphorylation of ERK (Cisbio HTRF pERK), H727 cells; type: cell-based; details: Homo sapiens, NCI-H727, H727 cells; HTRF pERK
Procedure, shortened: as §1

[9] = system: KRas-mediated phosphorylation of ERK in A549 cells; experiment: Inhibition of KRas-mediated phosphorylation of ERK (Cisbio HTRF pERK), A549 cells; type: cell-based; details: Homo sapiens, HTRF pERK
Procedure, shortened: as §1

[10] = system: KRas-mediated phosphorylation of ERK in H460 cells; experiment: Inhibition of KRas-mediated phosphorylation of ERK (Cisbio HTRF pERK), H460 cells; type: cell-based; details: Homo sapiens, NCI-H460, HTRF pERK
Procedure, shortened: as §1

[11] = system: KRas-mediated phosphorylation of ERK in HCT116 cells; experiment: Inhibition of KRas-mediated phosphorylation of ERK (Cisbio HTRF pERK), HCT116 cells; type: cell-based; details: Homo sapiens, HCT-116, HTRF pERK
Procedure, shortened: as §1

[12] = system: KRas-mediated phosphorylation of ERK in H358 cells; experiment: Inhibition of KRas-mediated phosphorylation of ERK (Cisbio HTRF pERK), H358 cells; type: cell-based; details: Homo sapiens, NCI-H358, HTRF pERK
Procedure, shortened: as §1

T1 sequence (P01116 1-169 isoform P01116-2): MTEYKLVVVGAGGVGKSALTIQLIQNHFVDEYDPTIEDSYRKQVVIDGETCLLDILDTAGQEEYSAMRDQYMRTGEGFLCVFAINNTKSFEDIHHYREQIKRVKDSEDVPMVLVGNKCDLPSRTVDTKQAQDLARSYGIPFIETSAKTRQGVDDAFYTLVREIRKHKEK

Row | IC50 [1] | IC50 [2] | IC50 [3] | IC50 [4] | IC50 [5] | IC50 [6] | IC50 [7] | IC50 [8] | IC50 [9] | IC50 [10] | IC50 [11] | IC50 [12] | SMILES
1 | < 2 nM | < 2 nM | < 2 nM | < 2 nM | < 2 nM | 3 nM | 139 nM | 225 nM | 69 nM | 33 nM | 130 nM | 23 nM | C[C@@H]1C[C@@H]1c1c(Cl)cc(O)cc1-c1ncc2c(N3CCC[C@]4(C3)NC(=O)NC4=O)nc(OC[C@@]34CCCN3C[C@H](F)C4)nc2c1F [Example 932, (R)-7-(7-(3-chloro-5-hydroxy-2-((1S,2R)-2-methylcyclopropyl)phenyl)-8-fluoro-2-(((2R,7aS)-2-fluorotetrahydro-1H-pyrrolizin-7a(5H)-yl)methoxy)pyrido[4,3-d]pyrimidin-4-yl)-1,3,7-triazaspiro[4.5]decane-2,4-dione]
2 | 4 nM | < 2 nM | < 2 nM | < 2 nM | < 2 nM | 11 nM | 29 nM | 70 nM | 202 nM | 287 nM | 526 nM | 18 nM | C[C@@H]1C[C@@H]1c1c(Cl)cc(O)cc1-c1ncc2c(N3CCCn4nc(C(=O)N(C)C)cc4C3)nc(OC[C@@]34CCCN3C[C@H](F)C4)nc2c1F [Example 933, 5-(7-(3-chloro-5-hydroxy-2-((1S,2R)-2-methylcyclopropyl)phenyl)-8-fluoro-2-(((2R,7aS)-2-fluorotetrahydro-1H-pyrrolizin-7a(5H)-yl)methoxy)pyrido[4,3-d]pyrimidin-4-yl)-N,N-dimethyl-5,6,7,8-tetrahydro-4H-pyrazolo[1,5-a][1,4]diazepine-2-carboxamide]
3 | 3 nM | 2 nM | < 2 nM | < 2 nM | < 2 nM | 2 nM | 17 nM | 25 nM | 71 nM | 104 nM | 262 nM | 11 nM | C[C@@H]1C[C@@H]1c1c(Cl)cc(O)cc1-c1ncc2c(N3CCCn4nc(C(=O)N(C)C)cc4C3)nc(OCC34CCCN3C/C(=C\F)C4)nc2c1F (stereo partly drawn) [Example 936, 5-(7-(3-chloro-5-hydroxy-2-((1S,2R)-2-methylcyclopropyl)phenyl)-8-fluoro-2-(((Z)-2-(fluoromethylene)tetrahydro-1H-pyrrolizin-7a(5H)-yl)methoxy)pyrido[4,3-d]pyrimidin-4-yl)-N,N-dimethyl-5,6,7,8-tetrahydro-4H-pyrazolo[1,5-a][1,4]diazepine-2-carboxamide]
4 | < 2 nM | < 2 nM | < 2 nM | < 2 nM | < 2 nM | 1 nM | 116 nM | 116 nM | 55 nM | 36 nM | 88 nM | 12 nM | C[C@@H]1C[C@@H]1c1c(Cl)cc(O)cc1-c1ncc2c(N3CCC[C@]4(C3)NC(=O)NC4=O)nc(OCC34CCCN3C/C(=C\F)C4)nc2c1F (stereo partly drawn) [Example 937, (5R)-7-(7-(3-chloro-5-hydroxy-2-((1S,2R)-2-methylcyclopropyl)phenyl)-8-fluoro-2-(((Z)-2-(fluoromethylene)tetrahydro-1H-pyrrolizin-7a(5H)-yl)methoxy)pyrido[4,3-d]pyrimidin-4-yl)-1,3,7-triazaspiro[4.5]decane-2,4-dione]
5 | < 2 nM | < 2 nM | < 2 nM | < 2 nM | < 2 nM | 0.1 nM | 32 nM | 28 nM | 11 nM | 18 nM | 27 nM | 5 nM | C/C=C1/CN2CCCC2(COc2nc(N3C[C@@H]4C[C@H](C3)[C@H](O)C4)c3cnc(-c4cc(O)cc5ccc(F)c(CC)c45)c(F)c3n2)C1 (stereo partly drawn) [Example 939, (1R,5R,6R)-3-(7-(8-ethyl-7-fluoro-3-hydroxynaphthalen-1-yl)-2-(((E)-2-ethylidenetetrahydro-1H-pyrrolizin-7a(5H)-yl)methoxy)-8-fluoropyrido[4,3-d]pyrimidin-4-yl)-3-azabicyclo[3.2.1]octan-6-ol]
